Laboratory results reported in patent US7964624B1, “Inhibitors of serine proteases” (priority 2005, dated 2011).

Molecular target: T1, full-length hepatitis C viral protein NS3•4A (Hepatitis C virus genotype 1a, UniProt P27958)
T1 construct: hexa-histidine (N); made in house; host or cells: Sf9 insect cells (baculovirus, pVL1392)
Assay: biochemical
Design: species or system HCV sub-type strain 1a
Conditions: Enzyme Assay 2, HCV NS3 Peptide Cleavage Assay, apparent Ki

| SMILES | Ki [nM] |
| --- | --- |
| CCC[C@H](NC(=O)[C@@H]1C[C@]2(CC(c3cc(Cl)c(C)cc3OC)=NO2)CN1C(=O)[C@@H](NC(=O)CC1CCCCC1)C(C)(C)C)C(=O)C(=O)NC1CC1 [Compound 820] | < 100 |
| CCC[C@H](NC(=O)[C@@H]1C[C@]2(CC(c3cccc(Cl)c3)=NO2)CN1C(=O)[C@@H](NC(=O)C1(C#N)CC1)C(C)(C)C)C(=O)C(=O)NC1CC1 [Compound 823] | < 100 |
| CCC[C@H](NC(=O)[C@@H]1C[C@]2(CC(c3cccc(Cl)c3)=NO2)CN1C(=O)[C@@H](NC(=O)[C@H]1CC12CCOCC2)C(C)(C)C)C(=O)C(=O)NC1CC1 [Compound 826] | < 100 |
| CCC[C@H](NC(=O)[C@@H]1C[C@]2(CC(c3cc(C)c(OCC)c(C)c3)=NO2)CN1C(=O)[C@@H](NC(=O)[C@@H]1C[C@H]1c1ccccc1)C(C)(C)C)C(=O)C(=O)NC [Compound 828] | < 100 |
| CNC(=O)C(=O)[C@H](CC1CC1)NC(=O)[C@@H]1C[C@]2(CC(c3cccc(Cl)c3)=NO2)CN1C(=O)[C@@H](NC(=O)[C@@H]1C[C@H]1c1c[nH]cn1)C(C)(C)C [Compound 832] | 100 to 500 |
| CNC(=O)C(=O)[C@H](CC1CC1)NC(=O)[C@@H]1C[C@]2(CC(c3cccc(Cl)c3)=NO2)CN1C(=O)[C@@H](NC(=O)[C@H]1C[C@@H]1c1c[nH]cn1)C(C)(C)C [Compound 833] | < 100 |
| CCNC(=O)C(=O)[C@H](CC1CC1)NC(=O)[C@@H]1C[C@]2(CC(c3cccc(Cl)c3)=NO2)CN1C(=O)[C@@H](NC(=O)CC1CCCCC1)C(C)(C)C [Compound 836] | < 100 |
| CCNC(=O)C(=O)[C@H](CC1CC1)NC(=O)[C@@H]1C[C@]2(CC(c3cc(C)c(OC)c(C)c3)=NO2)CN1C(=O)[C@@H](NC(=O)[C@@H]1CC1c1ccccc1)C(C)(C)C (stereo partly shown) [Compound 845] | < 100 |
| CNC(=O)C(=O)[C@H](CC1CC1)NC(=O)[C@@H]1C[C@]2(CC(c3cccc(Cl)c3)=NO2)CN1C(=O)[C@@H](NC(=O)[C@@H]1CC12CCCCC2)C(C)(C)C [Compound 850] | < 100 |
| CNC(=O)C(=O)[C@H](CC1CC1)NC(=O)[C@@H]1C[C@]2(CC(c3cccc(Cl)c3)=NO2)CN1C(=O)[C@@H](NC(=O)OC1CCC1)C(C)(C)C [Compound 851] | < 100 |
| CCNC(=O)C(=O)[C@H](CC1CC1)NC(=O)[C@@H]1C[C@]2(CC(c3cc(C)c(OC)c(Cl)c3)=NO2)CN1C(=O)[C@@H](NC(=O)[C@@H]1C[C@H]1c1ccccc1)C(C)(C)C [Compound 856] | < 100 |
| CCC[C@H](NC(=O)[C@@H]1C[C@]2(CC(c3cc(C)c(OCC)c(C)c3)=NO2)CN1C(=O)[C@@H](NC(=O)OC1CCCC1)C(C)(C)C)C(=O)C(=O)NC1CC1 [Compound 860] | < 100 |
| CNC(=O)C(=O)[C@H](CC1CC1)NC(=O)[C@@H]1C[C@]2(CC(c3cccc(Cl)c3)=NO2)CN1C(=O)[C@@H](NC(=O)[C@@H]1C[C@H]1c1ccccc1OC)C(C)(C)C [Compound 867] | < 100 |
| CNC(=O)C(=O)[C@H](CC1CC1)NC(=O)[C@@H]1C[C@]2(CC(c3cccc(Cl)c3)=NO2)CN1C(=O)[C@@H](NC(=O)[C@@H]1C[C@H]1c1ccccn1)C(C)(C)C [Compound 869] | < 100 |
| CCC[C@H](NC(=O)[C@@H]1C[C@]2(CC(c3cc(C)c(OC)cc3OC)=NO2)CN1C(=O)[C@@H](NC(=O)[C@@H]1C[C@H]1c1ccccc1)C(C)(C)C)C(=O)C(=O)NC1CC1 [Compound 875] | < 100 |
| CNC(=O)C(=O)[C@H](CC1CC1)NC(=O)[C@@H]1C[C@]2(CC(c3cccc(Cl)c3)=NO2)CN1C(=O)[C@@H](NC(=O)[C@@H]1C[C@H]1c1cccnc1)C(C)(C)C [Compound 885] | 100 to 500 |
| CNC(=O)C(=O)[C@H](CC1CC1)NC(=O)[C@@H]1C[C@]2(CC(c3cccc(Cl)c3)=NO2)CN1C(=O)[C@@H](NC(=O)[C@@H]1C[C@@H]1c1ccccn1)C(C)(C)C [Compound 886] | < 100 |
| CNC(=O)C(=O)[C@H](CC1CC1)NC(=O)[C@@H]1C[C@]2(CC(c3cccc(Cl)c3)=NO2)CN1C(=O)[C@@H](NC(=O)[C@H]1C[C@H]1c1ccccc1)C(C)(C)C [Compound 887] | 100 to 500 |
| CCNC(=O)C(=O)[C@H](CC1CC1)NC(=O)[C@@H]1C[C@]2(CC(c3cc(Cl)c(OC)cc3OC)=NO2)CN1C(=O)[C@@H](NC(=O)C1CC1)C(C)(C)C [Compound 896] | < 100 |
| CCC[C@H](NC(=O)[C@@H]1C[C@]2(CC(c3cccc(Cl)c3)=NO2)CN1C(=O)[C@@H](NC(=O)[C@@H]1C[C@H]1C(C)C)C(C)(C)C)C(=O)C(=O)NC1CC1 [Compound 897] | < 100 |
| COc1ccc(Cl)cc1C1=NO[C@]2(C1)C[C@@H](C(=O)N[C@@H](CC1CC1)C(=O)C(N)=O)N(C(=O)[C@@H](NC(=O)[C@@H]1C[C@H]1c1ccccc1)C(C)(C)C)C2 [Compound 901] | < 100 |
| CNC(=O)C(=O)[C@H](CC1CC1)NC(=O)[C@@H]1C[C@]2(CC(c3cc(Cl)ccc3OC)=NO2)CN1C(=O)[C@@H](NC(=O)[C@H]1C[C@@H]1c1ccccc1)C(C)(C)C [Compound 903] | < 100 |
| CCC[C@H](NC(=O)[C@@H]1C[C@]2(CC(N3Cc4ccccc4C3)=NO2)CN1C(=O)[C@@H](NC(=O)OC1CCCC1)C(C)(C)C)C(=O)C(=O)NC1CC1 [Compound 904] | < 100 |

| SMILES | Ki [nM] |
| --- | --- |
| CCC[C@H](NC(=O)C1C[C@]2(CC(c3cc(C)c(OC)c(C)c3)=NO2)CN1C(=O)[C@@H](NC(=O)[C@@H]1C[C@H]1c1c[nH]cn1)C(C)(C)C)C(=O)C(=O)NC1CC1 (stereo partly shown) [Compound 907] | 100 to 500 |
| CCC[C@H](NC(=O)[C@@H]1C[C@]2(CC(c3cc(C)c(OCC)c(Cl)c3)=NO2)CN1C(=O)[C@@H](NC(=O)[C@@H]1C[C@H]1c1ccccc1)C(C)(C)C)C(=O)C(=O)NC1CC1 [Compound 915] | < 100 |
| CCC[C@H](NC(=O)[C@@H]1C[C@]2(CC(c3cccc(Cl)c3)=NO2)CN1C(=O)[C@@H](NC(=O)[C@@H]1C[C@H]1c1c[nH]cn1)C(C)(C)C)C(=O)C(=O)NC1CC1 [Compound 918] | 100 to 500 |
| CCC[C@H](NC(=O)[C@@H]1C[C@]2(CC(c3cccc(Cl)c3)=NO2)CN1C(=O)[C@@H](NC(=O)[C@H]1C[C@@H]1C1CCCCC1)C(C)(C)C)C(=O)C(=O)NC1CC1 [Compound 920] | 100 to 500 |
| CCC[C@H](NC(=O)[C@@H]1C[C@]2(CC(c3cccc(Cl)c3)=NO2)CN1C(=O)[C@@H](NC(=O)[C@@H]1CC12CCOCC2)C(C)(C)C)C(=O)C(=O)NC1CC1 [Compound 923] | < 100 |
| CNC(=O)C(=O)[C@H](CC1CC1)NC(=O)[C@@H]1C[C@]2(CC(c3cccc(Cl)c3)=NO2)CN1C(=O)[C@@H](NC(=O)[C@@H]1CC12CCOCC2)C(C)(C)C [Compound 927] | < 100 |
| CCC[C@H](NC(=O)[C@@H]1C[C@]2(CC(c3cccc(Cl)c3)=NO2)CN1C(=O)[C@@H](NC(=O)[C@H]1C[C@@H]1C1CCCCC1)C(C)(C)C)C(=O)C(=O)NC [Compound 928] | 100 to 500 |
| CCC[C@H](NC(=O)[C@@H]1C[C@]2(CC(c3cccc(Cl)c3)=NO2)CN1C(=O)[C@@H](NC(=O)[C@@H]1CC12CCOCC2)C(C)(C)C)C(=O)C(=O)NC [Compound 931] | 100 to 500 |
| CCC[C@H](NC(=O)[C@@H]1C[C@]2(CC(c3cccc(Cl)c3)=NO2)CN1C(=O)[C@@H](NC(=O)[C@H]1C[C@@H]1C1CCCCC1)C(C)(C)C)C(=O)C(N)=O [Compound 932] | < 100 |
| CCOc1cc(OC)c(C2=NO[C@]3(C2)C[C@@H](C(=O)N[C@@H](CC2CC2)C(=O)C(=O)NC)N(C(=O)[C@@H](NC(=O)OC(C)(C)C)C(C)(C)C)C3)cc1Cl [Compound 942] | < 100 |
| CCOc1cc(OC)c(C2=NO[C@]3(C2)C[C@@H](C(=O)N[C@@H](CC2CC2)C(=O)C(=O)NC)N(C(=O)[C@@H](NC(=O)OC2CCCC2)C(C)(C)C)C3)cc1Cl [Compound 947] | < 100 |
| CCC[C@H](NC(=O)[C@@H]1C[C@]2(CC(c3cccc(Cl)c3)=NO2)CN1C(=O)[C@@H](NC(=O)[C@H]1C[C@@H]1C1CCCC1)C(C)(C)C)C(=O)C(=O)NC1CC1 [Compound 953] | < 100 |
| CCC[C@H](NC(=O)[C@@H]1C[C@]2(CC(c3cccc(Cl)c3)=NO2)CN1C(=O)[C@@H](NC(=O)[C@@H]1C[C@H]1C1CCCC1)C(C)(C)C)C(=O)C(=O)NC1CC1 [Compound 954] | < 100 |
| CNC(=O)C(=O)[C@H](CC1CC1)NC(=O)[C@@H]1C[C@]2(CC(c3cccc(Cl)c3)=NO2)CN1C(=O)[C@@H](NC(=O)C1CC1c1ccn(C)n1)C(C)(C)C (stereo partly shown) [Compound 955] | < 100 |
| CCC[C@H](NC(=O)[C@@H]1C[C@]2(CC(c3cc(C)c(OCC)c(C)c3)=NO2)CN1C(=O)[C@@H](NC(=O)CC1CCCCC1)C(C)(C)OC)C(=O)C(=O)NC1CC1 [Compound 956] | < 100 |
| CCC[C@H](NC(=O)[C@@H]1C[C@]2(CC(c3cccc(Cl)c3)=NO2)CN1C(=O)[C@@H](NC(=O)OCC1(C)COC1)C(C)(C)C)C(=O)C(=O)NC1CC1 [Compound 957] | 100 to 500 |
| CNC(=O)C(=O)[C@H](CC1CC1)NC(=O)[C@@H]1C[C@]2(CC(c3cccc(Cl)c3)=NO2)CN1C(=O)[C@@H](NC(=O)Cc1cccnc1)C(C)(C)C [Compound 958] | < 100 |
| CNC(=O)C(=O)[C@H](CC1CC1)NC(=O)[C@@H]1C[C@]2(CC(c3cccc(Cl)c3)=NO2)CN1C(=O)[C@@H](NC(=O)[C@H]1CC1c1ccccc1)C(C)(C)OC (stereo partly shown) [Compound 959] | < 100 |
| CCC[C@H](NC(=O)[C@@H]1C[C@]2(CC(c3cccc(Cl)c3)=NO2)CN1C(=O)[C@@H](NC(=O)[C@H]1CC1c1ccccc1)C(C)(C)OC)C(=O)C(=O)NC1CC1 (stereo partly shown) [Compound 960] | < 100 |
| CCC[C@H](NC(=O)[C@@H]1C[C@]2(CC(c3cccc(Cl)c3)=NO2)CN1C(=O)[C@@H](NC(=O)C1(c2ccccc2)CC1)C(C)(C)C)C(=O)C(=O)NC1CC1 [Compound 961] | > 500 |
| CCC[C@H](NC(=O)[C@@H]1C[C@]2(CC(N3CCc4ccccc4C3)=NO2)CN1C(=O)[C@@H](NC(=O)OC1CCCC1)C(C)(C)C)C(=O)C(=O)NC1CC1 [Compound 962] | 100 to 500 |
| CCC[C@H](NC(=O)[C@@H]1C[C@]2(CC(N3Cc4ccccc4C3)=NO2)CN1C(=O)[C@@H](NC(=O)OC1CCCC1)C(C)(C)C)C(=O)C(=O)NC1CC1 [Compound 964] | 100 to 500 |
| CNC(=O)C(=O)[C@H](CC1CC1)NC(=O)[C@@H]1C[C@]2(CC(N3Cc4ccccc4C3)=NO2)CN1C(=O)[C@@H](NC(=O)OC1CCCC1)C(C)(C)C [Compound 965] | 100 to 500 |
